# Test results from patent publication US20260256792A1, “TREATMENT OF CHRONIC SPONTANEOUS URTICARIA BY ADMINISTERING (R)-2-[3-[4-AMINO-3-(2-FLUORO-4-PHENOXY-PHENYL)PYRAZOLO[3,4-D]PYRIMIDIN-1-YL]PIPERIDINE-1-CARBONYL]-4-METHYL-4-[4-(OXETAN-3-YL)PIPERAZIN-1-YL]PENT-2-ENENITRILE” (priority 2023, published 2026).
# Tested on: angioedema in CSU patients
# Test: Phase 2 CSU study: angioedema activity score over 7 days (AAS7)
# Type: in vivo, human
# Conditions: for Non-responder n (%), AAS7 = 0 / OR (95% CI) for rilzabrutinib vs. placebo, AAS7 = 0 / RRD (%) for rilzabrutinib vs. placebo (95% CI), AAS7 = 0 / Responder n (%), AAS7 = 0: outlier removed
# Description: The study comprises a 12 week, randomized, double-blind, placebo-controlled, multi-center, dose-ranging efficacy and safety phase, followed by a 40 week open label extension (OLE) phase (see FIG. 1). The study consists of three phases and an optional OLE phase. […] The weekly angioedema activity score (AAS7) was proposed as a tertiary endpoint. […] Patients were to complete the AAS using the e-diary. The e-diary was to be used once daily on the same time of each day recording of participant's answers to the angioedema activity score over 7 days (AAS7) questionnaire.
# [1] = 400 mg TID, Week 1, ITT, angioedema at baseline
# [2] = 400 mg TID, Week 1, omalizumab-naïve
# [3] = 400 mg TID, Week 1, omalizumab-naïve, angioedema at baseline
# [4] = 400 mg TID, Week 2, ITT, angioedema at baseline
# [5] = 400 mg TID, Week 2, omalizumab-naïve
# [6] = 400 mg TID, Week 2, omalizumab-naïve, angioedema at baseline
# [7] = 400 mg TID, Week 3, ITT, angioedema at baseline
# [8] = 400 mg TID, Week 3, omalizumab-naïve
# [9] = 400 mg TID, Week 3, omalizumab-naïve, angioedema at baseline
# [10] = 400 mg TID, Week 4, ITT, angioedema at baseline
# [11] = 400 mg TID, Week 4, omalizumab-naïve
smiles,measurement,setting,value
"CC(C)(C=C(C#N)C(=O)N1CCC[C@@H](n2nc(-c3ccc(Oc4ccccc4)cc3F)c3c(N)ncnc32)C1)N1CCN(C2COC2)CC1 [rilzabrutinib, (R)-2-[3-[4-amino-3-(2-fluoro-4-phenoxy-phenyl)pyrazolo[3,4-d]pyrimidin-1-yl]piperidine-1-carbonyl]-4-methyl-4-[4-(oxetan-3-yl)piperazin-1-yl]pent-2-enenitrile]","Participants with AAS7 = 0, Responder n (%)","400 mg QPM, Week 12, omalizumab-naïve, angioedema at baseline",6 (22.2) n (%)
same,LS mean change from baseline in AAS7 at Week 12,"400 mg TID, ITT population, angioedema at baseline",−43.36 points
same,AAS7 % Change difference for rilzabrutinib vs. placebo LS Mean (95% CI),[1],"−34.55 (−66.00, −3.09) %"
same,AAS7 % Change from baseline LS Mean (SE),[1],−54.51 (9.77) %
same,AAS7 Change difference for rilzabrutinib vs. placebo LS Mean (95% CI),[1],"−15.05 (−28.44, −1.67)"
same,AAS7 Change from baseline LS Mean (SE),[1],−29.55 (4.16)
same,AAS7 Post-baseline Mean (SD),[1],17.50 (22.29)
same,"Non-responder n (%), AAS7 = 0",[2],16 (47.1) n (%)
same,"OR (95% CI) for rilzabrutinib vs. placebo, AAS7 = 0",[2],2.576
same,"RRD (%) for rilzabrutinib vs. placebo (95% CI), AAS7 = 0",[2],21.8 %
same,"Responder n (%), AAS7 = 0",[2],18 (52.9) n (%)
same,AAS7 % Change difference for rilzabrutinib vs. placebo LS Mean (95% CI),[3],"−36.35 (−71.01, −1.69) %"
same,AAS7 % Change from baseline LS Mean (SE),[3],−53.40 (10.59) %
same,"AAS7 = 0, Non-responder n (%)",[3],16 (69.6) n (%)
same,"AAS7 = 0, OR (95% CI) for rilzabrutinib vs. placebo",[3],9.250
same,"AAS7 = 0, RRD (%) for rilzabrutinib vs. placebo (95% CI)",[3],21.8 %
same,AAS7 Change difference for rilzabrutinib vs. placebo LS Mean (95% CI),[3],"−16.03 (−30.69, −1.38)"
same,AAS7 Change from baseline LS Mean (SE),[3],−29.80 (4.48)
same,AAS7 Post-baseline Mean (SD),[3],18.96 (23.24)
same,"Participants with AAS7 = 0, Responder n (%)",[3],7 (30.4) n (%)
same,AAS7 % Change from baseline LS Mean (SE),[4],−60.12 (12.38) %
same,AAS7 Change difference for rilzabrutinib vs. placebo LS Mean (95% CI),[4],"−11.45 (−23.02, 0.12)"
same,AAS7 Change from baseline LS Mean (SE),[4],−32.35 (4.37)
same,AAS7 Post-baseline Mean (SD),[4],15.52 (20.15)
same,"Non-responder n (%), AAS7 = 0",[5],16 (47.1) n (%)
same,"OR (95% CI) for rilzabrutinib vs. placebo, AAS7 = 0",[5],1.556
same,"RRD (%) for rilzabrutinib vs. placebo (95% CI), AAS7 = 0",[5],10.2 %
same,"Responder n (%), AAS7 = 0",[5],18 (52.9) n (%)
same,AAS7 % Change difference for rilzabrutinib vs. placebo LS Mean (95% CI),[6],"−22.03 (−57.92, 13.85) %"
same,AAS7 % Change from baseline LS Mean (SE),[6],−59.25 (13.33) %
same,"AAS7 = 0, Non-responder n (%)",[6],14 (60.9) n (%)
same,"AAS7 = 0, OR (95% CI) for rilzabrutinib vs. placebo",[6],1.922
same,"AAS7 = 0, RRD (%) for rilzabrutinib vs. placebo (95% CI)",[6],12.9 %
same,AAS7 Post-baseline Mean (SD),[6],17.03 (20.90)
same,"Participants with AAS7 = 0, Responder n (%)",[6],9 (39.1) n (%)
same,AAS7 % Change difference for rilzabrutinib vs. placebo LS Mean (95% CI),[7],"−24.93 (−66.27, 16.41) %"
same,AAS7 % Change from baseline LS Mean (SE),[7],−73.45 (15.58) %
same,AAS7 Change difference for rilzabrutinib vs. placebo LS Mean (95% CI),[7],"−12.00 (−23.87, −0.13)"
same,AAS7 Change from baseline LS Mean (SE),[7],−36.15 (4.48)
same,AAS7 Post-baseline Mean (SD),[7],13.26 (21.30)
same,"Non-responder n (%), AAS7 = 0",[8],12 (35.3) n (%)
same,"OR (95% CI) for rilzabrutinib vs. placebo, AAS7 = 0",[8],3.010
same,"RRD (%) for rilzabrutinib vs. placebo (95% CI), AAS7 = 0",[8],26.5 %
same,"Responder n (%), AAS7 = 0",[8],22 (64.7) n (%)
same,AAS7 % Change difference for rilzabrutinib vs. placebo LS Mean (95% CI),[9],"−25.10 (−70.77, 20.57) %"
same,AAS7 % Change from baseline LS Mean (SE),[9],−72.78 (16.93) %
same,"AAS7 = 0, Non-responder n (%)",[9],11 (47.8) n (%)
same,"AAS7 = 0, OR (95% CI) for rilzabrutinib vs. placebo",[9],3.063
same,"AAS7 = 0, RRD (%) for rilzabrutinib vs. placebo (95% CI)",[9],22.5 %
same,AAS7 Post-baseline Mean (SD),[9],14.08 (22.48)
same,"Participants with AAS7 = 0, Responder n (%)",[9],12 (52.2) n (%)
same,AAS7 % Change difference for rilzabrutinib vs. placebo LS Mean (95% CI),[10],"−41.77 (−78.55, −4.98) %"
same,AAS7 % Change from baseline LS Mean (SE),[10],−78.35 (13.78) %
same,AAS7 Change difference for rilzabrutinib vs. placebo LS Mean (95% CI),[10],"−15.67 (−27.11, −4.22)"
same,AAS7 Change from baseline LS Mean (SE),[10],−38.27 (4.30)
same,AAS7 Post-baseline Mean (SD),[10],11.20 (15.95)
same,"Non-responder n (%), AAS7 = 0",[11],18 (52.9) n (%)
same,"RRD (%) for rilzabrutinib vs. placebo (95% CI), AAS7 = 0",[11],1.1 %
same,"Responder n (%), AAS7 = 0",[11],16 (47.1) n (%)
